Laboratory results taken from US20250332143A1, “COMPOSITION COMPRISING ALOX5 INHIBITOR FOR PREVENTING OR TREATING SARCOPENIA” (PLUTO Inc., priority 2022, published 2025).

How the values were obtained:
Atrogin-1 and MuRF-1 = assay: qPCR of muscle atrophy regulators in Dex-treated C2C12 myotubes; assay type: cell-based, mouse
Procedure: (§1) C2C12 murine skeletal muscle myoblasts were obtained from Koram Biotech (Republic of Korea). The cells were maintained in DMEM growth medium supplemented with 10% FBS, 1% penicillin, and streptomycin. When myoblasts proliferated to approximately 90%, they were differentiated into muscle fibers by treating them with DMEM differentiation medium supplemented with 2% HS, 1% penicillin, and streptomycin for 96 hours. Differentiated muscle fibers were treated with 10 μM Dex for 24 hours to induce sarcopenia. To evaluate the degree of differentiation of muscle cells, differentiating myoblasts were treated with the corresponding compound in differentiation medium for 24 or 48 hours.
For quantitative real-time PCR, transcript levels of genes of interest were analyzed using the StepOnePlus real-time PCR system (Applied Biosystems, UK). Total RNA was reverse transcribed to prepare cDNA using AccuPower® RT PreMix (Bioneer Corporation). The obtained cDNA was subjected to real-time PCR according to the manufacturer's instructions with the following changes. PCR was performed in triplicate in a total volume of 20 μL 2× Power SYBR Green PCR Master Mix (Enzynomics, Republic of Korea) containing 200 nM (final concentration) of each specific primer and 1 μL of cDNA synthesized from 1 μg of total RNA. PCR amplification consisted of incubating the mixture at 95° C. for 10 minutes, followed by 40 cycles of denaturation, annealing, and extension. Denaturation was performed at 95° C. for 15 s, annealing was performed at 60° C. for 1 min, and extension was performed at 72° C. for 20 s with fluorescence detection at 72° C. after each cycle. After the final cycle, melting point analysis of all samples was performed within the range of 60 to 95° C. using continuous fluorescence detection. Specific cDNA samples were included in each run and used as reference material for comparison between runs. The expression level of GAPDH was used to calculate and normalize the expression levels of all other genes. Results were expressed as relative expression levels for each gene. The synthesized cDNA was amplified by quantitative real-time PCR (qRT-PCR) or standard PCR.

[1] = test system: Dex-treated C2C12 myotubes; assay: Dex-induced myotube atrophy, myosin heavy chain immunostaining, myotube diameter; assay type: cell-based, mouse; conditions: 10 μM Dex 24 h; for diameter of muscle fibers (C2C12 myotubes): zileuton 10 µM, wedelolactone 20 μM (FIGS. 2, 3)
Procedure: as §1
Muscle fibers were stained using immunochemical staining using myosin heavy chain antibody. Specifically, the muscle fibers were rinsed three times with PBS and then fixed with a 3.7% formaldehyde solution. After rinsing with PBS, a transparency process was performed with 0.2% TritonX-100 solution, and additional rinsing was performed with PBS. They were blocked with 1% bovine serum albumin solution (1% BSA in PBS-T) and incubated with primary antibody overnight at 4° C. After washing with PBS, the secondary antibody was treated for 1 hour. Afterwards, the myotubes were counterstained with 1 μM DAPI in PBS. Fluorescence images of stained myotubes in five different areas were obtained using a DMI 3000 B microscope (Leica, Germany) and analyzed using ImageJ 1.52 software (National Institutes of Health, Bethesda, MD, USA). Myotubes were classified as myosin heavy chain positive cells containing four or more nuclei, and the diameter of muscle fibers containing four or more nuclei was measured.

| Compound | Atrogin-1 expression (mRNA, qPCR) (Atrogin-1 and MuRF-1) | myotube atrophy in Dex-treated myotubes ([1]; C2C12 myotubes) | MuRF-1 expression (mRNA, qPCR) (Atrogin-1 and MuRF-1) | diameter of muscle fibers (C2C12 myotubes) [1] |
| --- | --- | --- | --- | --- |
| CCCCC/C=C\C[C@@H](O)/C=C/C=C/C=C\[C@@H](O)CCCC(=O)O [LTB4, Leukotriene B4] | did not affect | did not affect | – | – |
| COc1cc(O)c2c(c1)oc(=O)c1c3cc(O)c(O)cc3oc21 [wedelolactone, Wedelolactone] | decreased | – | decreased | recovered |
| CC(c1cc2ccccc2s1)N(O)C(N)=O (centres unmarked) [zileuton, Zileuton] | decreased | – | decreased | recovered |
